The text below walks through data of ChEMBL document CHEMBL1201862, “PubChem BioAssay data set” (2004).

Test [1] addresses T1, Eukaryotic translation initiation factor 2-alpha kinase 3 (Homo sapiens, UniProt Q9NZJ5). As to the kind of experiment: Dose response cell-based high-throughput screening assay to measure PERK inhibition. [Related pubchem assays: 1416 ]. In kind it is functional.
Test [2] deals with T1, Eukaryotic translation initiation factor 2-alpha kinase 3. As to the kind of experiment: Counterscreen assay for PERK inhibitors: Dose response cell-based high throughput screening assay to measure inhibition of PERK at 6 hours. [Related pubchem assays: 1522, 1416 ]. In kind it is functional.
A short description of test [3]: NIH-3T3 fibroblast cytotoxicity, dose response, cytotoxicity control, cell-based, fluorescence, Alamar Blue, secondary assay (AID 2327).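 Further: NIH-3T3 mouse fibroblasts cultured with fluconazole at 8 µg/mL.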 In kind it is functional. Background: The colour change of resazurin is a common sign of viable cells or microbes.
For test [4], the system named is Streptococcus sp. 'group A'. As to the kind of experiment: growth inhibition of control SK(-) GAS strain, dose response, counter-screen for streptokinase expression inhibitor project, luminescence, kanamycin, BacTiterGlo, confirmation (AID 1900). In kind it is functional, organism-based. In general terms: Counterscreens check selectivity or assay interference.
A short description of test [5]: C. albicans growth with fluconazole, confirmation, fluorescence, retest (AID 2467). In kind it is functional, cell-based.
The target of test [6] is NS3 (Hepatitis C virus, UniProt A3EZJ3). As to the kind of experiment: PubChem AID 2173. Also noted: species or system Hepacivirus hominis.
Test [7] addresses T2, Serine/threonine-protein phosphatase (Candida dubliniensis (strain CD36 / CBS 7987 / NCPF 3949 / NRRLY-17841) (Yeast), UniProt B9W6M3).
T2 sequence (B9W6M3 whole entry): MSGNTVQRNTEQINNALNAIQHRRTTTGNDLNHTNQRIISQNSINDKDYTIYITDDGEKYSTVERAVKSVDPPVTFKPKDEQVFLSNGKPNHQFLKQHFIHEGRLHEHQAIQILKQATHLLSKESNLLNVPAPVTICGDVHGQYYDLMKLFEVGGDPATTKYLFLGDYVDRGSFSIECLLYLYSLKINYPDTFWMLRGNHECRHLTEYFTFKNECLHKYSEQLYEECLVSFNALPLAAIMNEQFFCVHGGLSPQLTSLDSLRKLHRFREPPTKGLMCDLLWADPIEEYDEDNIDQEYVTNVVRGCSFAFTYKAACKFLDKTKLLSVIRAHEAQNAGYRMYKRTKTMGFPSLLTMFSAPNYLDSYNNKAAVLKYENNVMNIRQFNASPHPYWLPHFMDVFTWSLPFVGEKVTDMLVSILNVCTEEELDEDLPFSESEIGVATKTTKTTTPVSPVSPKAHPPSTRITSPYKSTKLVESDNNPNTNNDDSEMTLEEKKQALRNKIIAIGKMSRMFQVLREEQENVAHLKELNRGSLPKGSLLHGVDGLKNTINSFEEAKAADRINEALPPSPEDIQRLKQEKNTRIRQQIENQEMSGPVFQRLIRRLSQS
As to the kind of experiment: calcineurin pathway inhibitors in yeast reporter, dose response, S. cerevisiae, CDRE-lacZ, luminescence, secondary (AID 2388).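 Further: yeast reporter cells carrying a calcineurin-responsive lacZ construct stimulated with calcium chloride; luminescent beta-galactosidase reporter signal in whole cells rather than isolated phosphatase activity; potency for inhibition where a drop in reporter signal means calcineurin blockade.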 In kind it is functional, cell-based.

For test [8], the system named is Streptococcus. As to the kind of experiment: Group A Streptococcus viability loss, dose response, counter-screen for streptokinase expression inhibitor project, luminescence, BacTiterGlo (AID 1915).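 Further: potency for reduction of bacterial viability or growth.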 In kind it is functional, organism-based.
Test [9] deals with Heat shock protein HSP 90-alpha (Homo sapiens, UniProt P07900). In kind it is functional, organism-based.
Test [10] has as its system Vero. As to the kind of experiment: Vero cell cytotoxicity, cytotoxicity control for flavivirus capping enzyme inhibitors (AID 588742). Particulars: Chlorocebus sabaeus. In kind it is functional.
Test [11] addresses Genome polyprotein (dengue virus type 2, UniProt P29990). As to the kind of experiment: Dengue-2 NS5 methyltransferase inhibitors, primary screen, biochemical, confirmation dose response (AID 588689). In kind it is functional.
Test [12] concerns the target ATP-dependent molecular chaperone HSP82 (Candida albicans (strain WO-1) (Yeast), UniProt C4YTQ8). As to the kind of experiment: loss of DOC-induced GRE-beta-galactosidase reporter signal, dose response, Hsp90 inhibitor project, S. cerevisiae, luminescence (AID 2400).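 Further: beta-galactosidase luminescence from glucocorticoid response element reporter as proxy for Hsp90 function; inhibitor potency where signal loss means Hsp90 inhibition.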 In kind it is functional, cell-based.
For test [13], the target named is Photoreceptor-specific nuclear receptor (Homo sapiens, UniProt Q9Y5X4). In kind it is functional.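 Further: potency for compounds that break the NR2E3 corepressor complex and count as activators.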
Test [14] has as its target Peroxisome proliferator-activated receptor gamma/Nuclear receptor corepressor 2 (Homo sapiens, UniProt P37231+Q9Y618). In kind it is functional.
Test [15] in a line: Luminescence-based counterscreen assay for KLF5 inhibitors: dose response cell-based high throughput screening assay to identify cytotoxic compounds using the IEC-6 intestinal epithelial cell line. [Related pubchem assays: 1700 (Primary screen.), 1834 (Confirmation screen.), 1858 (Summary AID.), 1905 (Counterscreen.)]. In kind it is functional.
The target in test [16] is Eukaryotic translation initiation factor 4E (Mus musculus, UniProt P63073). As to the kind of experiment: eIF4E–eIF4G protein interaction inhibitors, dose response, biochemical, TR-FRET (AID 855).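 Further: potency for disrupting eIF4E binding to eIF4GI seen as loss of FRET.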 In kind it is functional.
Test [17] in a line: Counterscreen for IDE inhibitors: Luminescence-based cell-based high throughput dose response assay to identify compounds that are cytotoxic to HEK cells. [Related pubchem assays: 434962 (Primary screen (IDE inhibitors in singlicate)), 449730 (Counterscreen (Cytotoxicity in triplicate)), 435028 (Confirmation (IDE inhibitors in triplicate)) …. The following applies: HEK293. In kind it is functional.

Test [18] has as its target T3, Insulin-degrading enzyme (Homo sapiens, UniProt P14735).
T3 sequence (P14735 whole entry): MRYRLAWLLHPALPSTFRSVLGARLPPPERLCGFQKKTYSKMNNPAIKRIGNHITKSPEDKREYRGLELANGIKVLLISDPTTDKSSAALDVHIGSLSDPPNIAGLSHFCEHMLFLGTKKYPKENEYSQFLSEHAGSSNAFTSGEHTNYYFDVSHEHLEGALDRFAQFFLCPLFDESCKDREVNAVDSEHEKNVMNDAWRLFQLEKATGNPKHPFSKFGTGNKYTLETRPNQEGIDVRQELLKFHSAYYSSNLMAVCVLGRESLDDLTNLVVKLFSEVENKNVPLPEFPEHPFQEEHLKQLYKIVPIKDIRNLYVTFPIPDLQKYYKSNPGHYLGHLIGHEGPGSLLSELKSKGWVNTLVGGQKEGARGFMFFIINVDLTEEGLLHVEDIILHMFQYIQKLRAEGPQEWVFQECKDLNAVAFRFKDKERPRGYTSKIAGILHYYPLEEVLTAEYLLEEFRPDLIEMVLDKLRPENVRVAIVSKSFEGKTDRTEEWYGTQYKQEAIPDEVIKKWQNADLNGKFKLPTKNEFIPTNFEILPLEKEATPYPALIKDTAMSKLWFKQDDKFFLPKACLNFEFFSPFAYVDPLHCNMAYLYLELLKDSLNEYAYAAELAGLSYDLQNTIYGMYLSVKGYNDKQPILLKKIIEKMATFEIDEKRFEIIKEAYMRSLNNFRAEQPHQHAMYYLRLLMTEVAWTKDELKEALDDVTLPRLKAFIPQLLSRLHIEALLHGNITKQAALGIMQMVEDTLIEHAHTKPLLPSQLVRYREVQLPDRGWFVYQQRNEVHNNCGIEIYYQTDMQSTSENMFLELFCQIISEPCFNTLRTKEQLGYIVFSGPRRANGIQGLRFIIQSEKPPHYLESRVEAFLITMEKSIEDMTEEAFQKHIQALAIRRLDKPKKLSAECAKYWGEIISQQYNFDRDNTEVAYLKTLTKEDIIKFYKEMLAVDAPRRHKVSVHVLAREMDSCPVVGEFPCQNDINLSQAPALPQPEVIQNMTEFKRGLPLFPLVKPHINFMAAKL
As to the kind of experiment: Dose Response: Fluorescence polarization-based cell-based high throughput dose response assay for inhibitors of insulin-degrading enzyme (IDE). [Related pubchem assays: 434962 (Primary screen (IDE inhibitors in singlicate)), 449730 (Counterscreen (Cytotoxicity in triplicate)), 435028 (Confirmation (IDE inhibitors in triplicate)), 434984 (Summary …. In kind it is functional. In general terms: In fluorescence polarisation assays a small probe gives low polarisation when free and higher when bound to something large.

Structures are written as SMILES. Active and inactive are the calls of the source. Where only a bound is given, the exact number is not on record here.

What is called EC50 is the concentration needed to bring the measured effect to its halfway point. For orientation: IC50 means the concentration needed to halve the response being measured. The AC50 is the concentration at which the activity in the assay is half-maximal. As usually defined, the CC50 is the concentration that lowers cell viability or growth by half.

T1 sequence (Q9NZJ5 whole entry): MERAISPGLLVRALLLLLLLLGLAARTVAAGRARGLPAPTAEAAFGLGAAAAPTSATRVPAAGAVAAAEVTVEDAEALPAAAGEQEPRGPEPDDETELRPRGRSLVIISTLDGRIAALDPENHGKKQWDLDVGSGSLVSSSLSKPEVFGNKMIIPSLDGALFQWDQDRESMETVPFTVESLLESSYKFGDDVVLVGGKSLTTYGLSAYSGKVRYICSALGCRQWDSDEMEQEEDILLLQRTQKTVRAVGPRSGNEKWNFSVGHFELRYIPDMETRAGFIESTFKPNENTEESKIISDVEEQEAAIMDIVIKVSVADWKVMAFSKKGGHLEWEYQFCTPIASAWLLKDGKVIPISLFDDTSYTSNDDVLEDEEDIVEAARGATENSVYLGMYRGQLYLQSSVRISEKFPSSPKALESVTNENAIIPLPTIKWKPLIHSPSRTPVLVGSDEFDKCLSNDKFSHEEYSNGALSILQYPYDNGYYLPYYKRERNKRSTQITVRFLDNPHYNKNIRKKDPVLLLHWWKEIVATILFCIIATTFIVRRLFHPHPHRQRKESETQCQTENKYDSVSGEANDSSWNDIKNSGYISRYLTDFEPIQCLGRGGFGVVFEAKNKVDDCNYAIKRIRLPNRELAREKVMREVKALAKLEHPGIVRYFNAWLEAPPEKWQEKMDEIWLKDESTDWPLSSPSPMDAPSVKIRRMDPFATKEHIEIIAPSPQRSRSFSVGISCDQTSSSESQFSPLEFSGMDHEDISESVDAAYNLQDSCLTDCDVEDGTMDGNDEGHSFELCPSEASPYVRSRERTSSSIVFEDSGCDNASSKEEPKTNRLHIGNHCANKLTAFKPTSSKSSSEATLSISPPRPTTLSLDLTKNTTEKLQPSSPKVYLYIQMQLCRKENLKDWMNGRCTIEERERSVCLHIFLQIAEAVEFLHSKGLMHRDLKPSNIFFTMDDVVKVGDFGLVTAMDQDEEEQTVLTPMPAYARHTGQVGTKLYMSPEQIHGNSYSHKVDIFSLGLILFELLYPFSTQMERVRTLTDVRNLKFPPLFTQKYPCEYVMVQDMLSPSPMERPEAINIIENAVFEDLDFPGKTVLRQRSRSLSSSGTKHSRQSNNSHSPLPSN
Sequence of Photoreceptor-specific nuclear receptor (Q9Y5X4 whole entry): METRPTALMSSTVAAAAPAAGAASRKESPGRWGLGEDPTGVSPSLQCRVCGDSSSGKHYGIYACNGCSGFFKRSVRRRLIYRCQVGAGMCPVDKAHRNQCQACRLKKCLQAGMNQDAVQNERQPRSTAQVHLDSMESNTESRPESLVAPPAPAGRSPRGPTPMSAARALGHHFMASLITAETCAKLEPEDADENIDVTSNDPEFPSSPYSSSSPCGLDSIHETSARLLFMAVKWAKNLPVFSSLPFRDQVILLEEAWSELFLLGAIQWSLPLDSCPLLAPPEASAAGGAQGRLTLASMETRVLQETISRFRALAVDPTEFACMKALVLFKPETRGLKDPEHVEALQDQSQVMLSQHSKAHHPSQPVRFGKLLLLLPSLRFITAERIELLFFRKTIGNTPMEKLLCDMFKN
Sequence of ATP-dependent molecular chaperone HSP82 (C4YTQ8 whole entry): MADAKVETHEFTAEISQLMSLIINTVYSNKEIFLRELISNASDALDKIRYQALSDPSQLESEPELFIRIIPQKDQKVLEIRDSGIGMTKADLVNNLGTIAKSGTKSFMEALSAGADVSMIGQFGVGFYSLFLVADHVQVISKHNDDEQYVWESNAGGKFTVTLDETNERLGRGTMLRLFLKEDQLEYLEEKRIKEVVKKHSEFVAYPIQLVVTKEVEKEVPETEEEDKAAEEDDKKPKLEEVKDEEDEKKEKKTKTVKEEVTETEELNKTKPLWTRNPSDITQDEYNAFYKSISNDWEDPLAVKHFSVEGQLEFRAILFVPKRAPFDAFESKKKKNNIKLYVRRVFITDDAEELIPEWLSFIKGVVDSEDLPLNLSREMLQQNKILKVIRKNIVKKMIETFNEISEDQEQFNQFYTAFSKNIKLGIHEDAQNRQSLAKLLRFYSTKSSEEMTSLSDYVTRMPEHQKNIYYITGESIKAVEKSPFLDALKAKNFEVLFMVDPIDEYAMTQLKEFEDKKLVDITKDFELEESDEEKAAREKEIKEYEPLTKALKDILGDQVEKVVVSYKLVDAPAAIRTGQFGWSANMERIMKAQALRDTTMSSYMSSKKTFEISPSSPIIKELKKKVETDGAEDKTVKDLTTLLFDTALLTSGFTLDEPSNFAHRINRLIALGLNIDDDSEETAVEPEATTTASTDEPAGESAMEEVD
Sequence of Eukaryotic translation initiation factor 4E (P63073 whole entry): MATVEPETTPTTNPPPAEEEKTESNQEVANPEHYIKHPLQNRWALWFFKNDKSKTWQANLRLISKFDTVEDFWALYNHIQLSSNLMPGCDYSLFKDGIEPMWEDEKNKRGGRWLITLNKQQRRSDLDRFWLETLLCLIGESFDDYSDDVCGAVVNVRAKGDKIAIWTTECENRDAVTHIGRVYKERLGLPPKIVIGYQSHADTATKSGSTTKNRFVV
Sequence of NS3 (A3EZJ3 whole entry): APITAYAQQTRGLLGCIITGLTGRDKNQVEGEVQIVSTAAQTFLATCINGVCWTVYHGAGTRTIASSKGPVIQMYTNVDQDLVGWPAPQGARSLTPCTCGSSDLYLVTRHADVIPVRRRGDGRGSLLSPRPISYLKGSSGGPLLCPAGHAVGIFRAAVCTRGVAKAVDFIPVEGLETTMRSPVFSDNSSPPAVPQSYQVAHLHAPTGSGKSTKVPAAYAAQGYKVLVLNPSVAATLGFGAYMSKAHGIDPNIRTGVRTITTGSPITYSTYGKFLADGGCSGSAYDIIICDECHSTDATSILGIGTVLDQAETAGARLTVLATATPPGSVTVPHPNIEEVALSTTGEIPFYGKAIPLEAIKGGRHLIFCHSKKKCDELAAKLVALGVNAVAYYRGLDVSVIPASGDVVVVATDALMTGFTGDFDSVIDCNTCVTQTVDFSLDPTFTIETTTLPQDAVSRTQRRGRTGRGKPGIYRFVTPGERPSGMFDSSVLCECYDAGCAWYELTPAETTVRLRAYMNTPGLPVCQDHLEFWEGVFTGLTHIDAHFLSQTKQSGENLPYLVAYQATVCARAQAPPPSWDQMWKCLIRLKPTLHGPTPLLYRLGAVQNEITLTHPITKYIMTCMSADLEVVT
Sequence of Genome polyprotein (P29990 2492-3391 limits assumed): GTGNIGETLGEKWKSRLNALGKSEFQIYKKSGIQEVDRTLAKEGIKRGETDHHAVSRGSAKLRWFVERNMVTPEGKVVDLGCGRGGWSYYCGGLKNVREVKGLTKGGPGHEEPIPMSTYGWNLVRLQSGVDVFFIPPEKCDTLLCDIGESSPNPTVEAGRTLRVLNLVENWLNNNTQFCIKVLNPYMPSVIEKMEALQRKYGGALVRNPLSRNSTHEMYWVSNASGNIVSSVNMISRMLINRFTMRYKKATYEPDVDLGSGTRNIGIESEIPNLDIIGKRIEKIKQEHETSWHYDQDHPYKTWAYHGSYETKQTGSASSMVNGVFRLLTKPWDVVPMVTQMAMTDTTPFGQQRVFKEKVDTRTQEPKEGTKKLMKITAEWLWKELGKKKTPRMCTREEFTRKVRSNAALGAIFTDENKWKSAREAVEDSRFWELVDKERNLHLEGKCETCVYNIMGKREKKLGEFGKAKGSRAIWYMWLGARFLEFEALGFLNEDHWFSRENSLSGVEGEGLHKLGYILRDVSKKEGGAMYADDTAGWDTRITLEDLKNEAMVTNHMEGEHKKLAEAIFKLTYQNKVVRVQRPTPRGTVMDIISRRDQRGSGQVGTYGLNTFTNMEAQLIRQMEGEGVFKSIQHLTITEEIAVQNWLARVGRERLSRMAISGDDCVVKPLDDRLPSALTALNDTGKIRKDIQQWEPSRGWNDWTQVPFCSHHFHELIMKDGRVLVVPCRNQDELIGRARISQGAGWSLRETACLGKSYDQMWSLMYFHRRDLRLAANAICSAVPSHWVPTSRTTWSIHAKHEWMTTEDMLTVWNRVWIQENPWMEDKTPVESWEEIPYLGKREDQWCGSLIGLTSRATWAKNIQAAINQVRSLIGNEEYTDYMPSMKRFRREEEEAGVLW

Consider `COc1cc(C(C#N)N2CCOCC2)ccc1O` (stereo not drawn), for which the EC50 in [1] and in test [2] was > 55.7 µM (not active) each time.
With `O=C1C=CC(=NNc2ccccc2)C=CC1=O`, the EC50 in [3] is > 160 µM (inactive); in test [4], 2.86 µM (active); in test [5], 0.237 µM (active); in [7], 2.47 µM (active); in test [8], 9.57 µM (active); in [12], 0.887 µM (active). In addition, the IC50 in test [6] was 12.6 µM (not active); in test [11], 91.2 µM (active). Also, the AC50 in test [9] was 2.02 µM (active). In addition, in [10], the CC50 is 23 µM (active).
On to `O=C(C1=C(O)C(=O)N(CCCN2CCOCC2)C1c1ccc(Cl)cc1)c1cc2ccccc2o1` (stereo not drawn), for which the IC50 was > 39.8 µM (not active) in test [13] and 5.14 µM (active) in [14].
Turning to `COc1ccc(OC)c(Nc2nc(=O)c3cccnc3s2)c1`, the IC50 in test [15] was > 39.8 µM (not active); in [16], 50 µM (inactive).
As for `O=C(NCCC1=CCCCC1)Nc1ccc2nsnc2c1`, the IC50 in test [17] was 23.8 µM (not active); in [18] it was > 56 µM (not active).
